Results reported in patent US11541050B2, “Pyrimidine derivatives for the treatment of viral infections” (JANSSEN SCIENCES IRELAND UC, priority 2011, dated 2023).

Legend:
Assay type in all cases: cell-based
Set-up in all cases: unit not given here
[1] = target: T1, human TLR7 (wild type sequence) (Homo sapiens, UniProt Q9NYK1); assay: TLR7 cellular NFκB-luc reporter assay, wild type TLR7; details: lowest effective concentration, wild type TLR7
T1 construct: expressed in transfected cells; host or cells: HEK293
T1 sequence (Q9NYK1 27-1049): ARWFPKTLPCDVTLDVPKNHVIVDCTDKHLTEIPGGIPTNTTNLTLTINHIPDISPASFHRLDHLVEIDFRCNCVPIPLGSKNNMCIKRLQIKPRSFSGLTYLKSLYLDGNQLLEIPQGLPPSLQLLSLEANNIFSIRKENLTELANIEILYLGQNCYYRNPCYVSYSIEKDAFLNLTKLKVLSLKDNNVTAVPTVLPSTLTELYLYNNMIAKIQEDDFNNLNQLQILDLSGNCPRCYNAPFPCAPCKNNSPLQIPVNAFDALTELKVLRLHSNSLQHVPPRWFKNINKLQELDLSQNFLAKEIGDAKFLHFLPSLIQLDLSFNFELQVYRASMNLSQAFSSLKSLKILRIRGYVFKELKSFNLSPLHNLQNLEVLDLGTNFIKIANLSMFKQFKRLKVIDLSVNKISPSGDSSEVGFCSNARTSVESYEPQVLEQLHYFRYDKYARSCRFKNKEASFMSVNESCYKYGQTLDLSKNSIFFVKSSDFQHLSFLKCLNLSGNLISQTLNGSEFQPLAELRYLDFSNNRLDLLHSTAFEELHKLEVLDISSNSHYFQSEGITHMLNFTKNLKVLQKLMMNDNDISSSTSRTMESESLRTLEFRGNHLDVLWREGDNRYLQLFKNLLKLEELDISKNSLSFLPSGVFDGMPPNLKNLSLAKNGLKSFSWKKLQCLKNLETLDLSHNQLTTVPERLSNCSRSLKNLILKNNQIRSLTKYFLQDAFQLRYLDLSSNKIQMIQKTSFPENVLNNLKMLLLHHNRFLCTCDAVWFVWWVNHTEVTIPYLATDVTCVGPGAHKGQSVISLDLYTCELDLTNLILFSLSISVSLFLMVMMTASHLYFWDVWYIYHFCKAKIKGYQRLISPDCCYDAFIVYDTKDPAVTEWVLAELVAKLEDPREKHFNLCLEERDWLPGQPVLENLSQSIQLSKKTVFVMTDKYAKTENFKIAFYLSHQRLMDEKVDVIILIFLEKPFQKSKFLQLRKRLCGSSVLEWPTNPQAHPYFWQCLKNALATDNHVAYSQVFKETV
How it was run: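 HEK293 cells were transiently transfected for 48 h with a CMV-driven wild-type or LRR2-deletion TLR7 or TLR8 plasmid plus an NFκB-luc reporter. They were then exposed to compound for 6 h at 37 °C and luciferase was read. LEC is the concentration giving an effect at least twofold above the assay SD, from quadruplicate dose-response curves.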

[2] = tested on: human TLR7 mutant sequence comprising a deletion in the second leucine-rich repeat; assay: TLR7 cellular NFκB-luc reporter assay, mutant TLR7 with deletion in the second leucine-rich repeat; details: lowest effective concentration
Experimental: (§1) The ability of compounds to activate human TLR7 and/or TLR8 was assessed in a cellular reporter assay using HEK293 cells transiently transfected with a TLR7 or TLR8 expression vector and NFκB-luc reporter construct. In one instance the TLR expression construct expresses the respective wild type sequence or a mutant sequence comprising a deletion in the second leucine-rich repeat of the TLR.
(§2) Briefly, HEK293 cells were grown in culture medium (DMEM supplemented with 10% FCS and 2 mM Glutamine). For transfection of cells in 10 cm dishes, cells were detached with Trypsin-EDTA, transfected with a mix of CMV-TLR7 or TLR8 plasmid (750 ng), NFκB-luc plasmid (375 ng) and a transfection reagent and incubated for 48 hours at 37° C. in a humidified 5% CO2 atmosphere. […] Thirty microliters of cells were then dispensed into each well in 384-well plates, where 10 μL of compound in 4% DMSO was already present. Following 6 hours incubation at 37° C., 5% CO2, the luciferase activity was determined by adding 15 μl of Steady Lite Plus substrate (Perkin Elmer) to each well and readout performed on a ViewLux ultraHTS microplate imager (Perkin Elmer). Dose response curves were generated from measurements performed in quadruplicates.

[3] = tested on: human TLR8 mutant sequence comprising a deletion in the second leucine-rich repeat; assay: TLR8 cellular NFκB-luc reporter assay, mutant TLR8 with deletion in the second leucine-rich repeat; details: lowest effective concentration
Experimental: as §1, §2

Row | SMILES | TLR7-wt_LEC [1] | TLR7-dIRR2_LEC [2] | TLR8-dIRR2_LEC [3]
1 | CCCC[C@@H](CO)Nc1nc(N)ncc1OCc1nccc(OC)c1OC [Compound 217] | 0.106 | 0.433 | 0.007
2 | CCC[C@@H](CCO)Nc1nc(N)ncc1OCc1cccnc1 [Compound 271] | 0.261 | 0.511 | 0.088
3 | CCCC[C@@H](CO)Nc1nc(N)ncc1OCc1ccccn1 [Compound 243] | 0.343 | 0.103 | 0.190
4 | CCCCNc1nc(N)ncc1OCc1ncccc1F [Compound 213] | 0.225 | 0.207 | 0.032
5 | CCC[C@@H](CCO)Nc1nc(N)ncc1OCc1ccncc1 [Compound 302] | 0.385 | 0.487 | 0.070
6 | CCCCNc1nc(N)ncc1OC[C@H](C)OC [Compound 287] | 15.530 | 5.380 | 3.560
7 | CCCC[C@@H](CO)Nc1nc(N)ncc1OCc1cccnn1 [Compound 278] | 0.880 | 0.270 | 0.136
8 | CCCCNc1nc(N)ncc1OCCOC(C)C [Compound 234] | 1.850 | 1.170 | 0.464
9 | CCC[C@@H](CCO)Nc1nc(N)ncc1OCc1cc(C)nn1C [Compound 264] | 0.215 | 0.489 | 0.087
10 | CCC[C@@H](CCO)Nc1nc(N)ncc1OCc1cccnn1 [Compound 279] | 0.724 | 1.100 | 0.034
11 | CCC[C@@H](CCO)Nc1nc(N)ncc1OCc1cn(-c2ccccc2)nn1 [Compound 285] | 0.266 | 0.530 | 0.036
12 | CCCC[C@@H](CCOC(=O)C(C)C)Nc1nc(N)ncc1OC [Compound 250] | 0.724 | 3.250 | 0.580
13 | CCC[C@@H](CO)Nc1nc(N)ncc1OCc1cccc(C(=O)O)n1 [Compound 260] | 4.850 | 2.830 | >8.14
14 | CCC[C@@H](CO)Nc1nc(N)ncc1OCc1cc(C)n(C)n1 [Compound 257] | 0.697 | 0.444 | 0.304
15 | CCCC[C@@H](CCO)Nc1nc(N)ncc1OCc1cccnn1 [Compound 280] | 0.392 | 1.450 | 0.038
16 | CCCC[C@@H](CCO)Nc1nc(N)ncc1OCc1cccc(C)n1 [Compound 295] | 0.047 | 0.430 | 0.034
17 | CCCC[C@@H](CCO)Nc1nc(N)ncc1OCCOC [Compound 266] | 1.070 | 1.890 | 0.557
18 | CCCC[C@@H](CO)Nc1nc(N)ncc1OCc1cc(C)n(C)n1 [Compound 255] | 0.552 | 0.515 | 0.315
19 | CCC[C@@H](C)Nc1nc(N)ncc1OCc1cn2ccccc2n1 [Compound 253] | 12.760 | >25 | 6.230
20 | CCCC[C@@H](CCO)Nc1nc(N)ncc1OCCCc1ccc(OC)cc1 [Compound 225] | 0.385 | 2.180 | 0.129

Row | SMILES | TLR7-wt_LEC [1] | TLR7-dIRR2_LEC [2] | TLR8-dIRR2_LEC [3]
21 | CCC[C@@H](CCO)Nc1nc(N)ncc1OCCOC [Compound 268] | 2.100 | 1.800 | 1.170
22 | C#CCOc1cnc(N)nc1NCCCC [Compound 248] | 2.120 | 0.654 | 0.529
23 | CCCC[C@@H](CCO)Nc1nc(N)ncc1OCc1ccncc1 [Compound 291] | 0.120 | 0.407 | 0.106
24 | CCC[C@@H](CO)Nc1nc(N)ncc1OCc1cc(C)nn1C [Compound 254] | 1.770 | 0.467 | 0.364
25 | CCCCNc1nc(N)ncc1OCCNC(=O)OCC [Compound 232] | 0.967 | 1.680 | 0.110
26 | CCCC[C@@H](CCO)Nc1nc(N)ncc1OCc1ccccn1 [Compound 294] | 0.133 | 0.521 | 0.042
27 | CCCC[C@@H](CO)Nc1nc(N)ncc1OCc1cn2ccccc2n1 [Compound 218] | 0.154 | 0.352 | 0.032
28 | CCC[C@@H](CCO)Nc1nc(N)ncc1OCc1cccc(C)n1 [Compound 227] | 0.170 | 0.717 | 0.030
29 | CCCC(C)Nc1nc(N)ncc1OCCCc1ccc2c(c1)OCO2 (stereo not drawn) [Compound 265] | 0.752 | 3.700 | 0.591
30 | CCCCNc1nc(N)ncc1OCCN1CCOCC1 [Compound 269] | 24.550 | 8.280 | 9.750
31 | CCC[C@@H](CCO)Nc1nc(N)ncc1OCCCc1ccc(OC)cc1 [Compound 226] | 0.274 | 1.050 | 0.036
32 | CCC[C@@H](CCO)Nc1nc(N)ncc1OCCOC(C)C [Compound 301] | 1.170 | 2.640 | 0.534
33 | CCC[C@@H](CCO)Nc1nc(N)ncc1OCc1cccc(C(N)=O)n1 [Compound 270] | 0.109 | 0.131 | 0.006
34 | CCCCNc1nc(N)ncc1OCCCC(=O)OC(C)C [Compound 221] | 0.654 | 0.859 | 0.496
35 | CCC[C@@H](CO)Nc1nc(N)ncc1OCc1cc2ccccc2cn1 [Compound 258] | 0.074 | 0.153 | 0.060
36 | CCCCNc1nc(N)ncc1OCCN(Cc1ccccc1)C(=O)OCC [Compound 230] | 0.593 | 3.470 | 0.138
37 | CCCC[C@@H](CCO)Nc1nc(N)ncc1OCc1cccc(C(N)=O)n1 [Compound 282] | 0.133 | 0.502 | 0.005
38 | CCCC[C@@H](CCO)Nc1nc(N)ncc1OCc1cc2ccccc2cn1 [Compound 223] | 0.100 | 1.400 | 0.033
39 | CCCC[C@@H](CCO)Nc1nc(N)ncc1OCCOC(C)C [Compound 296] | 0.664 | 2.540 | 0.310
